Patent publication US8754242B2, “Herbicides” (Syngenta Crop Protection LLC, priority 2007, dated 2014)

Key:
Format in all cases: in vivo
[1] = test system: Echinochloa crus-galli (ECHCG); test: Test Example 1 post-emergence herbicidal activity; details: 360 h, rate 125 g/ha, evaluated 15 days later, read-out: Post-emergence activity ECHCG (100=total damage to plant; 0=no damage to plant)
Outline: (§1)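 Pots sown in standard soil were sprayed 1 day (pre-emergence) or 10 days (post-emergence) after sowing with an aqueous spray from an acetone/Emulsogen EL/N-methylpyrrolidone-based formulation. Visual damage was scored 20 days (pre) or 15 days (post) later in the greenhouse, 0 = none to 100 = total.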

[2] = test system: Avena fatua (AVEFA); test: Test Example 1 post-emergence herbicidal activity; details: 360 h, rate 125 g/ha, evaluated 15 days later, read-out: Post-emergence activity AVEFA (100=total damage to plant; 0=no damage to plant)
Outline: as §1

[3] = test system: Setaria faberi (SETFA); test: Test Example 1 post-emergence herbicidal activity; details: 360 h, rate 125 g/ha, evaluated 15 days later, read-out: Post-emergence activity SETFA (100=total damage to plant; 0=no damage to plant)
Outline: as §1

[4] = test system: Alopecurus myosuroides (ALOMY); test: Test Example 1 post-emergence herbicidal activity; details: 360 h, rate 125 g/ha, evaluated 15 days later, read-out: Post-emergence activity ALOMY (100=total damage to plant; 0=no damage to plant)
Outline: as §1

[5] = test system: Digitaria sanguinalis (DIGSA); test: Test Example 1 post-emergence herbicidal activity; details: 360 h, rate 125 g/ha, evaluated 15 days later, read-out: Post-emergence activity DIGSA (100=total damage to plant; 0=no damage to plant)
Outline: as §1

[6] = test system: Lolium perenne (LOLPE); test: Test Example 1 post-emergence herbicidal activity; details: 360 h, rate 125 g/ha, evaluated 15 days later, read-out: Post-emergence activity LOLPE (100=total damage to plant; 0=no damage to plant)
Outline: as §1

[7] = test system: Echinochloa crus-galli (ECHCG); test: Test Example 1 pre-emergence herbicidal activity; details: Echinochloa crus-galli, 480 h, rate 250 g/ha, evaluated 20 days later, read-out: Pre-emergence activity ECHCG (100=total damage to plant; 0=no damage to plant)
Outline: as §1

[8] = test system: Avena fatua (AVEFA); test: Test Example 1 pre-emergence herbicidal activity; details: Avena fatua, 480 h, rate 250 g/ha, evaluated 20 days later, read-out: Pre-emergence activity AVEFA (100=total damage to plant; 0=no damage to plant)
Outline: as §1

[9] = test system: Setaria faberi (SETFA); test: Test Example 1 pre-emergence herbicidal activity; details: Setaria faberi, 480 h, rate 250 g/ha, evaluated 20 days later, read-out: Pre-emergence activity SETFA (100=total damage to plant; 0=no damage to plant)
Outline: as §1

[10] = test system: Alopecurus myosuroides (ALOMY); test: Test Example 1 pre-emergence herbicidal activity; details: Alopecurus myosuroides, 480 h, rate 250 g/ha, evaluated 20 days later, read-out: Pre-emergence activity ALOMY (100=total damage to plant; 0=no damage to plant)
Outline: as §1

[11] = test system: Digitaria sanguinalis (DIGSA); test: Test Example 1 pre-emergence herbicidal activity; details: Digitaria sanguinalis, 480 h, rate 250 g/ha, evaluated 20 days later, read-out: Pre-emergence activity DIGSA (100=total damage to plant; 0=no damage to plant)
Outline: as §1

[12] = test system: Lolium perenne (LOLPE); test: Test Example 1 pre-emergence herbicidal activity; details: Lolium perenne, 480 h, rate 250 g/ha, evaluated 20 days later, read-out: Pre-emergence activity LOLPE (100=total damage to plant; 0=no damage to plant)
Outline: as §1

Row | SMILES | pest or weed control at 125 g/ha [1] [%] | pest or weed control at 125 g/ha [2] [%] | pest or weed control at 125 g/ha [3] [%] | pest or weed control at 125 g/ha [4] [%] | pest or weed control at 125 g/ha [5] [%] | pest or weed control at 125 g/ha [6] [%] | pest or weed control at 250 g/ha [7] [%] | pest or weed control at 250 g/ha [8] [%] | pest or weed control at 250 g/ha [9] [%] | pest or weed control at 250 g/ha [10] [%] | pest or weed control at 250 g/ha [11] [%] | pest or weed control at 250 g/ha [12] [%]
1 | Cc1cc(C)c(C2=C(O)[C@@H]3[C@@H]4O[C@@H](C[C@H]4c4ccc(C(F)(F)F)cn4)[C@@H]3C2=O)c(C)c1 (racemic) [Example T200] | 100 | 80 | 100 | 70 | 100 | 80 | 90 | 0 | 70 | 0 | 70 | 70
2 | CC1=C2CCC(C)C[C@@]23O[C@@H]1C1C(=O)C(c2c(C)cc(C)cc2C)=C(O)C13 (stereo partly drawn) [Example T60] | 0 | 0 | 40 | 10 | 50 | 0 | 30 | 40 | 10 | 0 | 30 | 10
3 | Cc1cc(C)c(C2=C(O)[C@@H]3[C@@H]4O[C@@H](C[C@H]4c4ccccc4)[C@@H]3C2=O)c(C)c1 [Example T56] | 100 | 50 | 60 | 100 | 70 | 80 | 100 | 60 | 70 | 100 | 70 | 100
4 | CCc1cc(C)cc(CC)c1C1=C(O)[C@@H]2[C@@H]3O[C@@H](C[C@H]3c3cc(C(F)(F)F)ccc3Cl)[C@@H]2C1=O [Example T169] | 80 | 10 | 60 | 90 | 40 | 30 | 0 | 30 | 0 | 20 | 0 | 40
5 | Cc1cc(C)c(C2=C(O)C3C(C2=O)[C@@H]2CC(CO)[C@@]3(C)O2)c(C)c1 (stereo partly drawn) [Example T62] | 80 | 0 | 70 | 60 | 70 | 20 | 80 | 70 | 80 | 70 | 80 | 60
6 | CCc1cc(C)cc(CC)c1C1=C(O)[C@@H]2[C@@H]3O[C@@H](C[C@H]3c3ccc(SC)cc3)[C@@H]2C1=O [Example T162] | 100 | 90 | 100 | 90 | 100 | 70 | 80 | 70 | 10 | 70 | 40 | 90
